# According to PMC10908623, “X-ray structure and characterization of a probiotic Lactobacillus rhamnosus Probio-M9 L-rhamnose isomerase” (Applied Microbiology and Biotechnology, 2024):
# B1: L-rhamnose isomerase from Lactobacillus rhamnosus Probio-M9 (enzyme, UniProt A0A171J5T1 1-426, looked up)
# chain: MVKPEEVDKAYEVAKQRYAEIGVDTDAAMKELEKVPLSVHCWQGDDIHGFLFPNQELTGGIGVSGNYPGIARTPDELAGDMHEALSLIPGKHRVQLHAIYAVTDKKRDLDTLEPEDFDYWIDWAKQEGVGLDFNGTFFSHPMVKDNMTVSSPDPKVRDFWIRHGKISREISNYIGEKLGSQVVNNFWFPDGFKDNPIDKKTPRLRLLKALDEIIKDPLPEKNTIESFEGKLFGTGIESYTTGSHEFYQNYAISRNKLWTIDAGHFHPTEDVSDKFSAFFPFGKGLFMHVSRPVRWDSDHVVIMDDALIRITRSLVRDGYLDRTHIGLDFFDATINRVAAWVVGARATQKSLLQAMLAPIDQLKKDELNADFTTRLIETEELKSFPFGAVWDKFCQDHNTPVGFDWMNNIHQYEKDVQFKRDAKLVH
# notes: L-rhamnose isomerase (putative LrL-RhI) of Lactobacillus rhamnosus Probio-M9, 426 amino acid residues, 48707 Da; also called LrL-RhI; L-RhI; not shown: His-tag, C-terminal, kept
# Tests used:
# [1] = target: T1, LrL-RhI (L. rhamnosus Probio-M9 L-rhamnose isomerase) (Lacticaseibacillus rhamnosus, UniProt A0A171J5T1); assay: X-ray crystal structure of the complex (soaking), […] Å; assay type: binding; details: 30% (w/v) D-allose soak; Mn2+; crystals at pH 6.5; catalytic site; also a surface site
# T1 construct: gene rhaA; full length, 426 residues, 48707 Da; synthesized gene in pQE60, C-terminal His-tag kept; E. coli JM109; homotetramer
# T1 sequence (A0A171J5T1 1-426): B1 chain
# [2] = target: T1, LrL-RhI (L. rhamnosus Probio-M9 L-rhamnose isomerase); assay: as above; assay type: binding; details: 30% (w/v) D-allulose soak; Mn2+; crystals at pH 6.5; catalytic site; also a surface site
# [3] = target: the molecule itself; assay: crystal structure; sitting-drop vapor diffusion at 20 C, 0.1 M MES pH 6.5, 15% PEG550MME; LrL-RhI alone and crystals soaked in 30% (w/v) L-rhamnose, D-allulose or D-allose; space group P212121, four molecules in the asymmetric unit
molecule,measurement,setting,value
OC[C@H]1OC(O)[C@H](O)[C@H](O)[C@@H]1O (stereo partly drawn) [D-allose],"X-ray crystal structure of the complex (soaking), 1.71 Å",[1],The bound D-allose exhibits a pyranose form and appears to be β-D-allopyranose
OC[C@]1(O)OC[C@@H](O)[C@@H](O)[C@H]1O [D-allulose],"X-ray crystal structure of the complex (soaking), 1.73 Å",[2],The bound D-allulose shows a ring-opened structure.
B1,stoichiometry N,[3],4
